# Source: patent US8354415B2, “Thienopyrimidine compounds and compositions” (Vernalis (R&D) Ltd., priority 2007, dated 2013)
# Target: T1, human adenosine A2B receptors (Homo sapiens, UniProt P29275)
# T1 construct: expressed in transfected cells
# T1 sequence (P29275 1-332): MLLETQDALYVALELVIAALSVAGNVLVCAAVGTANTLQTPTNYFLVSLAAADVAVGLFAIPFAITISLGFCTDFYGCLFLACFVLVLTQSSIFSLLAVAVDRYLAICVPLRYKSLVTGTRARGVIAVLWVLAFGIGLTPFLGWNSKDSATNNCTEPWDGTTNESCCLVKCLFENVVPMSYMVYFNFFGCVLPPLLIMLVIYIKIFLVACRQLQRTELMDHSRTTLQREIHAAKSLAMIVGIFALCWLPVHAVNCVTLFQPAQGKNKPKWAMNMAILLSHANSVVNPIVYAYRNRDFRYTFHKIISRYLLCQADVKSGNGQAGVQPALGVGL
# Assay: FLIPR calcium flux assay, adenosine A2B receptor expressing cells
# Type: cell-based
# Conditions: expressed human adenosine A2B receptors in mammalian cell lines, activity range
# Method: The use of a Fluorometric Imaging Plate Reader (FLIPR) to measure calcium flux in Adenosine-receptor expressing cells is a well-established technique. In this assay calcium flux is triggered by receptor activation and measured through the fluorescence of an incorporated calcium-sensitive dye. The potencies shown were determined using expressed human adenosine A2B receptors in mammalian cell lines. Selectivity values were obtained by using mammalian cell lines expressing the human adenosine A1, A2A, and A3 receptors. Compound potency was determined from dose response curves and are reported as IC50 values.
row,IC50 [nM],SMILES
1,> 500,C[C@@H](Nc1nc(C(=O)N2CCCC2)c2sccc2n1)c1cccnc1 [Example 22]
2,> 500,"CC(Nc1nc(C(=O)N2CCCC2)c2sccc2n1)c1cccnc1 (racemic) [Example 7, [2-(1-Pyridin-3-yl-ethylamino)-thieno[3,2-d]pyrimidin-4-yl]-pyrrolidin-1-yl-methanone]"
3,> 500,"O=C(c1nc(NCc2cccnc2)nc2ccsc12)N1CCCCC1 [Example 19, Piperidin-1-yl-{2-[(pyridin-3-ylmethyl)-amino]-thieno[3,2-d]pyrimidin-4-yl}-methanone]"
4,< 500,"CC(Nc1nc(C(=O)NC2CC2)c2sccc2n1)c1cccnc1 (centres unmarked) [Example 20, 2-(1-Pyridin-3-yl-ethylamino)-thieno[3,2-d]pyrimidine-4-carboxylic acid cyclopropylamide]"
5,< 500,"O=C(c1nc(NCc2cccnc2)nc2ccsc12)N1CCCC1 [Example 9, {2-[(Pyridin-3-ylmethyl)-amino]-thieno[3,2-d]pyrimidin-4-yl}-pyrrolidin-1-yl-methanone]"
6,< 500,"C[C@H](Nc1nc(C(=O)N2CCCC2)c2sccc2n1)c1cccnc1 [Example 23, (S)-[2-(1-Pyridin-3-yl-ethylamino)-thieno[3,2-d]pyrimidin-4-yl]-pyrrolidin-1-yl-methanone]"

# Second part, the compound before the results:
row,SMILES,IC50 [nM]
1,"CCNC(=O)c1nc(NCc2cccnc2)nc2ccsc12 [Example 8, 2-[(Pyridin-3-ylmethyl)-amino]-thieno[3,2-d]pyrimidine-4-carboxylic acid ethylamide]",> 500
2,"CC(C)NC(=O)c1nc(NCc2cccnc2)nc2ccsc12 [Example 11, 2-[(Pyridin-3-ylmethyl)-amino]-thieno[3,2-d]pyrimidine-4-carboxylic acid isopropylamide]",< 500
3,"O=C(NCc1ccccc1)c1nc(NCc2cccnc2)nc2ccsc12 [Example 16, 2-[(Pyridin-3-ylmethyl)-amino]-thieno[3,2-d]pyrimidine-4-carboxylic acid benzylamide]",< 500
4,"Nc1nc(C(=O)NC2CC2)c2sccc2n1 [Example 21, 2-Amino-thieno[3,2-d]pyrimidine-4-carboxylic acid cyclopropylamide]",> 500
5,"CNC(=O)c1nc(NCc2cccnc2)nc2ccsc12 [Example 13, 2-[(Pyridin-3-ylmethyl)-amino]-thieno[3,2-d]pyrimidine-4-carboxylic acid methylamide]",> 500
6,"O=C(NC1CC1)c1nc(NCc2cccnc2)nc2ccsc12 [Example 10, 2-[(Pyridin-3-ylmethyl)-amino]-thieno[3,2-d]pyrimidine-4-carboxylic acid cyclopropylamide]",> 500
7,"O=C(NC1CCCC1)c1nc(NCc2cccnc2)nc2ccsc12 [Example 12, 2-[(Pyridin-3-ylmethyl)-amino]thieno[3,2-d]pyrimidine-4-carboxylic acid cyclopentylamide]",> 500
8,"O=C(NCCc1ccccc1)c1nc(NCc2cccnc2)nc2ccsc12 [Example 14, 2-[(Pyridin-3-ylmethyl)-amino]-thieno[3,2-d]pyrimidine-4-carboxylic acid phenethyl-amide]",< 500
9,"O=C(NCc1cccnc1)c1nc(NCc2cccnc2)nc2ccsc12 [Example 18, 2-[(Pyridin-3-ylmethyl)-amino]-thieno[3,2-d]pyrimidine-4-carboxylic acid (pyridin-3-ylmethyl)-amide]",> 500
10,"O=C(NC1CCCCC1)c1nc(NCc2cccnc2)nc2ccsc12 [Example 15, 2-[(Pyridin-3-ylmethyl)-amino]-thieno[3,2-d]pyrimidine-4-carboxylic acid cyclohexylamide]",< 500
11,"COCCNC(=O)c1nc(NCc2cccnc2)nc2ccsc12 [Example 17, 2-[(Pyridin-3-ylmethyl)-amino]-thieno[3,2-d]pyrimidine-4-carboxylic acid (2-methoxy-ethyl)-amide]",> 500
